From ChEMBL document CHEMBL6127075, “Tetrazoles: A multi-potent motif in drug design” (Eur J Med Chem, 2024)
Converted amounts (≈) assume the structure as drawn.

Tests used:
[1] = test system: Pichia kudriavzevii; test: Antifungal activity against Candida krusei ATCC 6258 assessed as inhibition of fungal growth incubated for 24 hrs by microtiter plate reader assay; type: functional
[2] = test system: HepG2; test: Cytotoxicity against human HepG2 cells assessed as reduction in cell viability incubated for 24 hrs by MTT assay; type: functional, cell-based; settings: HepG2, 24 h
[3] = test system: MCF7; test: Cytotoxicity against human MCF7 cells assessed as reduction in cell viability incubated for 24 hrs by MTT assay; type: functional, cell-based; settings: MCF7, 24 h
[4] = test system: Escherichia coli; test: Antibacterial activity against Escherichia coli ATCC 25922 assessed as bacterial growth inhibition incubated for 24 hrs by broth dilution method; type: functional
[5] = test system: Staphylococcus epidermidis; test: Antibacterial activity against Staphylococcus epidermidis ATCC 12228 assessed as bacterial growth inhibition incubated for 24 hrs by broth dilution method; type: functional
[6] = test system: Pseudomonas aeruginosa; test: Antimicrobial activity against Pseudomonas aeruginosa ATCC 27853 assessed as inhibition of microbial growth incubated for 24 hrs by broth microdilution method; type: functional
[7] = test system: Staphylococcus aureus; test: Antibacterial activity against Staphylococcus aureus ATCC 29213 assessed as bacterial growth inhibition incubated for 24 hrs by broth dilution method; type: functional
[8] = test system: Staphylococcus aureus; test: Antibacterial activity against Staphylococcus aureus MTCC-96 assessed as bacterial growth inhibition after 24 hrs by broth macro dilution method; type: functional
[9] = test system: Pseudomonas aeruginosa; test: Antibacterial activity against Pseudomonas aeruginosa assessed as bacterial growth inhibition after 24 hrs by broth macro dilution method; type: functional
[10] = test system: Escherichia coli; test: Antibacterial activity against Escherichia coli assessed as bacterial growth inhibition after 24 hrs by broth macro dilution method; type: functional
[11] = test system: Micrococcus luteus; test: Antibacterial activity against Micrococcus luteus assessed as bacterial growth inhibition after 24 hrs by broth macro dilution method; type: functional
[12] = test system: Staphylococcus aureus; test: Antibacterial activity against Staphylococcus aureus MTCC-739 assessed as bacterial growth inhibition after 24 hrs by broth macro dilution method; type: functional
[13] = Antioxidant activity assessed as DPPH radical scavenging activity after 30 mins by spectrophotometric analysis; type: functional
[14] = test system: PC-3; test: Cytotoxicity against human PC-3 cells assessed as reduction in cell growth incubated for 24 hrs by MTT assay; type: functional, cell-based; settings: PC-3, 24 h
[15] = test system: Nannizzia gypsea; test: Antifungal activity against Microsporum gypseum assessed as reduction in fungal growth; type: functional
[16] = target: Type-1 angiotensin II receptor (Homo sapiens) (UniProt P30556); test: Inhibition of Angiotensin-2 receptor (unknown origin)
[17] = test system: HUVEC; test: Antiproliferative activity against HUVEC cells assessed as inhibition of cell proliferation incubated for 72 hrs by Cell Titer Luminescence assay; type: functional, cell-based; settings: Homo sapiens
[18] = target: T1, Tyrosine-protein phosphatase non-receptor type 1 (Homo sapiens, UniProt P18031); test: Inhibition of PTP1B (unknown origin)
T1 sequence (P18031 whole entry): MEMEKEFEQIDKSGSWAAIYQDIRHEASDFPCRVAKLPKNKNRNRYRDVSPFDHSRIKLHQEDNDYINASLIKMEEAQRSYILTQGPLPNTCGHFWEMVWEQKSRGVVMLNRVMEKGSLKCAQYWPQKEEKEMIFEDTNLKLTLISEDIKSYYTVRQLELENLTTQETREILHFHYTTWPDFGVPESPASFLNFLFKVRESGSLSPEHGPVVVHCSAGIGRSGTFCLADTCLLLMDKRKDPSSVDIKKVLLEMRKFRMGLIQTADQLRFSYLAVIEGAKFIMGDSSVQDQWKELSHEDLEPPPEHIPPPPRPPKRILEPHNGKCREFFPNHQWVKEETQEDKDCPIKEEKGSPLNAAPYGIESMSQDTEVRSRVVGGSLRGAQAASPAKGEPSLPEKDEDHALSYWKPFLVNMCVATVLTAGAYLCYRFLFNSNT

[19] = test system: Escherichia coli; test: Antibacterial activity against Escherichia coli ATCC 25922 assessed as reduction in microbial growth by incubated for 18 hrs CLSI based broth microdilution method; type: functional
[20] = test system: Escherichia coli; test: Antimicrobial activity against Escherichia coli NCTC 8196 assessed as reduction in microbial growth measured fro 18 hrs by two-fold serial dilution method; type: functional
[21] = test system: Staphylococcus epidermidis; test: Antibacterial activity against Staphylococcus epidermidis ATCC 12228 assessed as reduction in microbial growth by incubated for 18 hrs CLSI based broth microdilution method; type: functional
[22] = test system: CCRF-CEM; test: Cytotoxicity against human CCRF-CEM cells assessed as reduction in cell growth at 25 uM incubated for 48 hrs by MTT assay relative to control; type: functional; design: scale not given: the % may be the effect or the level left
[23] = test system: MCF7; test: Cytotoxicity against human MCF7 cells assessed as reduction in cell growth at 25 uM incubated for 48 hrs by MTT assay relative to control; type: functional; design: scale not given: the % may be the effect or the level left
[24] = test system: Aspergillus flavus; test: Antifungal activity against Aspergillus flavus assessed as inhibition of fungal growth; type: functional
[25] = Antagonist activity at NMDA receptor (unknown origin); design: species or system Homo sapiens
[26] = target: Cholinesterase (Homo sapiens, UniProt P06276); test: Inhibition of BChE (unknown origin) using acetylthiocholine iodide as substrate preincubated for 20 mins followed by substrate addition and measured after 5 mins by Ellman's method
[27] = test system: DU-145; test: Antiproliferative activity against human DU-145 cells assessed as inhibition of cell growth measured after 24 hrs by MTT assay; type: functional, cell-based; settings: DU-145, 24 h
[28] = Antiproliferative activity against human RWPE-1 cells assessed as inhibition of cell growth measured after 24 hrs by MTT assay; type: toxicity, cell-based
[29] = test system: PC-3; test: Antiproliferative activity against human PC-3 cells assessed as inhibition of cell growth measured after 24 hrs by MTT assay; type: functional, cell-based; settings: PC-3, 24 h
[30] = test system: Staphylococcus aureus; test: Antibacterial activity against Staphylococcus aureus assessed as reduction in microbial growth by CLSI based broth microdilution method; type: functional

Type-1 angiotensin II receptor (Homo sapiens), sequence (P30556 whole entry, looked up): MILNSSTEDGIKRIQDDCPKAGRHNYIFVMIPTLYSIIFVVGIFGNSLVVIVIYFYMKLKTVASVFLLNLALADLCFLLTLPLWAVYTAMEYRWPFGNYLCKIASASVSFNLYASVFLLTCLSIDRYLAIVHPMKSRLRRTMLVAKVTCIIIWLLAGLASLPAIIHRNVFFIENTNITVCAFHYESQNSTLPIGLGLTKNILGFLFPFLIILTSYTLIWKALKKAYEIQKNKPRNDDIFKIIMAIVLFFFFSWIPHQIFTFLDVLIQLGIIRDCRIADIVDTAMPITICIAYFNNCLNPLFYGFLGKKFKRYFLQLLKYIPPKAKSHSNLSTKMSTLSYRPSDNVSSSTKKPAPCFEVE
Cholinesterase, sequence (P06276 whole entry): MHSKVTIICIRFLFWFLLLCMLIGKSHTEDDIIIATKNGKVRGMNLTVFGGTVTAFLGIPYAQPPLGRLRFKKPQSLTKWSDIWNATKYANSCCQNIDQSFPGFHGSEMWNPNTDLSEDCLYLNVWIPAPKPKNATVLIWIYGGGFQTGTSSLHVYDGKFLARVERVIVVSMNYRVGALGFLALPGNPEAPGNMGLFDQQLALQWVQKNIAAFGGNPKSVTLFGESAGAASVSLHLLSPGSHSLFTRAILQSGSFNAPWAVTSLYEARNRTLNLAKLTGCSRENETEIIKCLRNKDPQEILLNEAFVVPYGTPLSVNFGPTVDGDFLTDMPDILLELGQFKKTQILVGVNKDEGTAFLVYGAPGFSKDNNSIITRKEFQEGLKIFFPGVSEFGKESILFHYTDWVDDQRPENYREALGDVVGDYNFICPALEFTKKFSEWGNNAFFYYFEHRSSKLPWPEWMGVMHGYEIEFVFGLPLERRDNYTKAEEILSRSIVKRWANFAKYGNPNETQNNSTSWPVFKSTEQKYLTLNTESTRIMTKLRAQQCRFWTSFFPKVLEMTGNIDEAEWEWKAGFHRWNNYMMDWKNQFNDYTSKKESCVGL

Structure (SMILES): Cn1nnnc1SCC(=O)N1CCN(C2CCCCC2)CC1
- MIC [1]: 3.9 µg/mL (≈ 12 µM)

Structure (SMILES): Clc1ccc(-c2nnn(-c3[se]nnc3-c3ccc(Cl)cc3)n2)cc1
- IC50 [2]: 43.2 µM
- IC50 [3]: 43.2 µM

Structure (SMILES): CC1=C(C)C2(C)CC1(C)C1C(=O)N(Nc3nnnn3-c3cccc(C(F)(F)F)c3)C(=O)C12 (stereo not drawn)
- MIC [4]: 0.4 µg/mL (≈ 0.896 µM)
- MIC [5]: 0.4 µg/mL (≈ 0.896 µM)
- MIC [6]: 0.4 µg/mL
- MIC [7]: 0.4 µg/mL (≈ 0.896 µM)

Structure (SMILES): Cn1ncc2cc(-n3cc(CSc4nnnn4-c4cccc(O)c4)nn3)ccc21
- MIC [8]: 5 µg/mL (≈ 12.3 µM)
- MIC [9]: 5 µg/mL (≈ 12.3 µM)
- MIC [10]: 5 µg/mL (≈ 12.3 µM)
- MIC [11]: 5 µg/mL (≈ 12.3 µM)
- MIC [12]: 5 µg/mL (≈ 12.3 µM)

Structure (SMILES): OC(Cn1cncn1)(Cn1cncn1)c1ccc(F)cc1F [FLUCONAZOLE]
- MIC [1]: 7.8 µg/mL (≈ 25.5 µM)

Structure (SMILES): Cn1ncc2cc(-n3cc(CSc4nnnn4-c4ccc(F)cc4F)nn3)ccc21
- MIC [8]: 5 µg/mL (≈ 11.8 µM)
- MIC [9]: 5 µg/mL (≈ 11.8 µM)
- MIC [10]: 5 µg/mL (≈ 11.8 µM)
- MIC [11]: 5 µg/mL (≈ 11.8 µM)
- MIC [12]: 5 µg/mL (≈ 11.8 µM)

Structure (SMILES): C1=C(c2nnn(Cc3cn(Cc4ccccc4)nn3)n2)COc2ccccc21
- IC50 [13]: 27.63 µg/mL (≈ 74.4 µM)

Structure (SMILES): Clc1ccc(-c2nn[se]c2-n2nnc(-c3ccccc3)n2)cc1
- IC50 [2]: 43.2 µM
- IC50 [3]: 43.2 µM

Structure (SMILES): O=C(O)Cn1nnc(-c2cn(-c3ccccc3)nc2-c2ccc(Cl)cc2)n1
- IC50 [14]: 6.43 µM

Structure (SMILES): Cn1ncc2cc(-n3cc(CSc4nnnn4-c4cccc([N+](=O)[O-])c4)nn3)ccc21
- MIC [8]: 5 µg/mL (≈ 11.5 µM)
- MIC [9]: 5 µg/mL (≈ 11.5 µM)
- MIC [10]: 5 µg/mL (≈ 11.5 µM)
- MIC [11]: 5 µg/mL (≈ 11.5 µM)
- MIC [15]: 11 µg/mL (≈ 25.3 µM)
- MIC [12]: 5 µg/mL (≈ 11.5 µM)

Structure (SMILES): O=P(O)(O)CN[C@@H](Cc1ccc(-c2ccccc2)cc1)c1nnn[nH]1
- IC50 [16]: 0.0009 µM

Structure (SMILES): Clc1ncccc1-c1nnn[nH]1
- IC50 [13]: 27.63 µg/mL (≈ 152 µM)

Structure (SMILES): CCC(C)n1ncn(-c2ccc(N3CCN(c4ccc(OC[C@@H]5CO[C@@](Cn6ncnn6)(c6ccc(Cl)cc6Cl)O5)cc4)CC3)cc2)c1=O (stereo partly drawn)
- IC50 [17]: 0.073 µM

Structure (SMILES): OC1C2CC3CC1CC(C2)C3(Cc1nnn[nH]1)c1ccc(-c2ccc(F)cc2)cc1 (stereo not drawn)
- IC50 [18]: 0.0037 µM

Structure (SMILES): COc1ccc(-c2nnc(C[Se]c3nnn[nH]3)o2)cc1
- IC50 [13]: 27.63 µg/mL (≈ 81.9 µM)

Structure (SMILES): Fc1ccc(-n2nnnc2NCc2ccco2)cc1Cl
- MIC [19]: 2 µg/mL
- MIC [20]: 2 µg/mL
- MIC [21]: 2 µg/mL

Structure (SMILES): CO/N=C1\CN(c2nc3c(cc2F)c(=O)c(C(=O)O)cn3C2CC2)CC1CN (stereo not drawn) [GEMIFLOXACIN]
- MIC [9]: 10 µg/mL (≈ 25.7 µM)
- MIC [10]: 10 µg/mL (≈ 25.7 µM)

Structure (SMILES): Clc1ccccc1-c1nnnn1CCCn1cnc2c(Br)c(Br)c(Br)c(Br)c21
- Activity [22]: <1%
- Activity [23]: <1%

Structure (SMILES): Cc1cn(C2OC(CO)CC2n2nnnc2-c2cccnc2Cl)c(=O)[nH]c1=O (stereo not drawn)
- IC50 [13]: 25.87 µg/mL (≈ 63.8 µM)

Structure (SMILES): Brc1c(Br)c(Br)c2c(ncn2CCCn2nnnc2-c2ccccc2)c1Br
- Activity [22]: <1%
- Activity [23]: <1%

Structure (SMILES): Cc1ccc(-n2nnnc2NCc2ccco2)cc1Cl
- MIC [19]: 2 µg/mL
- MIC [20]: 2 µg/mL
- MIC [21]: 2 µg/mL

Structure (SMILES): Fc1ccccc1-n1nnnc1NCc1ccco1
- MIC [19]: 2 µg/mL
- MIC [20]: 2 µg/mL
- MIC [21]: 2 µg/mL

Structure (SMILES): Cc1cn(C2OC(CO)CC2n2nnnc2Cc2c[nH]c3ccccc23)c(=O)[nH]c1=O (stereo not drawn)
- IC50 [13]: 25.87 µg/mL (≈ 61.1 µM)

Structure (SMILES): COc1ccc(-n2nnnc2SCc2cn(-c3ccc4c(cnn4C)c3)nn2)cc1
- MIC [24]: 10 µg/mL (≈ 23.8 µM)

Structure (SMILES): Cn1ncc2cc(-n3cc(CSc4nnnn4-c4cccc(F)c4)nn3)ccc21
- MIC [8]: 5 µg/mL (≈ 12.3 µM)
- MIC [9]: 5 µg/mL (≈ 12.3 µM)
- MIC [10]: 5 µg/mL (≈ 12.3 µM)
- MIC [11]: 5 µg/mL (≈ 12.3 µM)
- MIC [12]: 5 µg/mL (≈ 12.3 µM)

Structure (SMILES): O=C(O)[C@H]1C[C@@H](Cc2nnn[nH]2)CCN1 (single isomer, unassigned)
- IC50 [25]: 0.1 µM

Structure (SMILES): COc1cccc2c1C(=O)c1c(O)c3c(c(O)c1C2=O)C[C@@](O)(C(=O)CO)C[C@@H]3O[C@H]1C[C@H](N)[C@H](O)[C@H](C)O1 [DOXORUBICIN]
- IC50 [14]: 2.24 µM

Structure (SMILES): O=P(O)(O)CN[C@@H](Cc1ccc2oc3ccccc3c2c1)c1nnn[nH]1
- IC50 [16]: 0.006 µM

Structure (SMILES): Clc1ccc(-c2nn[se]c2-n2nnc(-c3ccccc3Cl)n2)cc1
- IC50 [2]: 43.2 µM
- IC50 [3]: 43.2 µM

Structure (SMILES): COc1ccccc1C1=C(C#N)/C(=C(/C)c2nnn[nH]2)NC(C)(c2ccccc2OC)C1 (stereo not drawn)
- IC50 [26]: 0.29 µM

Structure (SMILES): O=S(=O)(c1ccccc1)n1nnc(CCSc2cc3ccccc3[nH]2)n1
- IC50 [13]: 27.63 µg/mL (≈ 71.7 µM)

Structure (SMILES): CCC(C)n1ncn(-c2ccc(N3CCN(c4ccc(OCC5COC(Cn6cncn6)(c6ccc(Cl)cc6Cl)O5)cc4)CC3)cc2)c1=O (stereo not drawn) [ITRACONAZOLE]
- MIC [24]: 8 µg/mL (≈ 11.3 µM)
- MIC [15]: 10 µg/mL (≈ 14.2 µM)

Structure (SMILES): O=C1N(Cc2ccc(Br)cc2)c2ccccc2C1(O)Cc1nnn[nH]1 (stereo not drawn)
- IC50 [27]: 11.7 µM
- IC50 at 24 h [28]: 76 µM
- IC50 [29]: 10.1 µM

Structure (SMILES): CC1=C(C)C2(C)CC1(C)C1C(=O)N(Nc3nnnn3-c3ccccc3Cl)C(=O)C12 (stereo not drawn)
- MIC [4]: 0.4 µg/mL (≈ 0.969 µM)
- MIC [5]: 0.4 µg/mL (≈ 0.969 µM)
- MIC [6]: 0.4 µg/mL
- MIC [7]: 0.4 µg/mL (≈ 0.969 µM)

Structure (SMILES): C[C@@H](c1ncncc1F)[C@](O)(Cn1cncn1)c1ccc(F)cc1F [VORICONAZOLE]
- MIC [1]: 3.9 µg/mL (≈ 11.2 µM)

Structure (SMILES): CC1=C(C)C2(C)CC1(C)C1C(=O)N(Nc3nnnn3-c3ccccc3Br)C(=O)C12 (stereo not drawn)
- MIC [4]: 0.4 µg/mL (≈ 0.875 µM)
- MIC [5]: 0.4 µg/mL (≈ 0.875 µM)
- MIC [6]: 0.4 µg/mL
- MIC [30]: 0.1 µg/mL
- MIC [7]: 0.4 µg/mL (≈ 0.875 µM)
